Experimental data from US20040082757A1, “Echinocandin derivatives, pharmaceutical compositions containing same and use thereof as drugs” (priority 2001, published 2004).
Numbered stars: 1 amine (or outer) side, 2 acyl side, 3 side chain; on linkers, the order of the positions; unused ones are H or OH. Bridge positions count the residues as written; N and C are the ends. Square brackets hold non-standard residues; d marks the D form. Peptide text beside a SMILES is read from it. * marks the point of attachment. ξ: configuration not given here. ξhTyr(βξ-OH,3-OSO3H) = NC(C(=O)O)C(O)Cc1ccc(O)c(OS(=O)(=O)O)c1; ξOrn(4,5-diOH) = O=C(C(CC(O)C(O)N[*:3])N[*:1])[*:2]; X3 = CCCCCOc1ccc(-c2cc(-c3ccc(C(=O)*)cc3)no2)cc1; ξOrn(4ξ-OH) = O=C(C(CC(O)CN[*:3])N[*:1])[*:2]; ξPro(3ξ-OH,4ξ-Me) = CC1CNC(C(=O)O)C1O; X2 = NC(=O)CC(O)C(N[*:1])C(=O)[*:2]; X1 = O=C(C1C(O)C(O)CN1[*:1])[*:2]; ξT = CC(O)C(N)C(=O)O

How the values were obtained:
Candida albicans FP 633 = experiment: Antimicrobial activity test: antifungal susceptibility by microdilution method (NCCLS M27-A), MIC; type: cell-based; conditions: FP633, RPMI 1640, pH 7.0, 35° C., lowest concentration with no visible growth
Experimental: The antifungal susceptibility assays were performed by the microdilution method according to M27-A guidelines recommended by the National Committee for Clinical Laboratory Standards (NCCLS) to determine the MICs of the compounds. RPMI 1640 medium with L-glutamine, without sodium bicarbonate and buffered with 165 mM morpholinepropanesulfonic acid buffer (pH 7.0) was used as a test medium. Inoculum suspension of 10^6 CFU/ml were prepared by a hemocytometric procedure and diluted to obtain an inoculum size of approximately 0.5×10^3 to 2.5×10^3 CFU/ml. Microplates were incubated at 35° C., and readings were taken when good growth in the growth control. The MICs were defined as the lowest concentrations at which no visible growth was observed.

melting point | MIC (Candida albicans FP 633) | SMILES
215 to 220 °C (dec.) | – | CC(O)C1NC(=O)C(N)CC(O)C(O)NC(=O)C2C(O)C(C)CN2C(=O)C(C(O)CC(N)=O)NC(=O)C(C(O)Cc2ccc(O)c(OS(=O)(=O)O)c2)NC(=O)C2C(O)C(O)CN2C1=O (stereo not drawn) [Object Compound (2)] (H-[ξOrn(4,5-diOH)][ξT][X1][ξhTyr(βξ-OH,3-OSO3H)][X2][ξPro(3ξ-OH,4ξ-Me)]; lactam 1-C)
250 to 260 °C (dec.) | – | CC(O)C1NC(=O)C(N)CC(O)CNC(=O)C2C(O)C(C)CN2C(=O)C(C(O)CC(N)=O)NC(=O)C(C(O)Cc2ccc(O)c(OS(=O)(=O)O)c2)NC(=O)C2CCCN2C1=O (stereo not drawn) [Object Compound (1)] (H-[ξOrn(4ξ-OH)]TP[ξhTyr(βξ-OH,3-OSO3H)][X2][ξPro(3ξ-OH,4ξ-Me)]; lactam 1-C; configuration not given here)

Further lines, the compound ahead of its results:

SMILES | melting point | MIC (Candida albicans FP 633)
CC1CN2C(=O)C(C(O)CC(N)=O)NC(=O)C(C(O)Cc3ccc(O)c(OS(=O)(=O)O)c3)NC(=O)C3CCCN3C(=O)C(CO)NC(=O)C(N)CC(O)CNC(=O)C2C1O (stereo not drawn) [Object Compound (3)] (H-[ξOrn(4ξ-OH)]SP[ξhTyr(βξ-OH,3-OSO3H)][X2][ξPro(3ξ-OH,4ξ-Me)]; lactam 1-C; configuration not given here) | 255 to 260 °C (dec.) | –
CCCCCOc1ccc(-c2cc(-c3ccc(C(=O)NC4CC(O)CNC(=O)C5C(O)C(C)CN5C(=O)C(C(O)CC(N)=O)NC(=O)C(C(O)Cc5ccc(O)c(OS(=O)(=O)[O-])c5)NC(=O)C5CCCN5C(=O)C(C(C)O)NC4=O)cc3)no2)cc1.[Na+] (stereo not drawn) [Object Compound (8)] (X3-[ξOrn(4ξ-OH)]TP[ξhTyr(βξ-OH,3-OSO3H)][X2][ξPro(3ξ-OH,4ξ-Me)]; lactam 1-C; configuration not given here) | – | < 0.1 µg/mL
CCCCCOc1ccc(-c2cc(-c3ccc(C(=O)NC4CC(O)C(O)NC(=O)C5C(O)C(C)CN5C(=O)C(C(O)CC(N)=O)NC(=O)C(C(O)Cc5ccc(O)c(OS(=O)(=O)[O-])c5)NC(=O)C5C(O)C(O)CN5C(=O)C(C(C)O)NC4=O)cc3)no2)cc1.[Na+] (stereo not drawn) [Object Compound (9)] | – | < 0.02 µg/mL
CCCCCOc1ccc(-c2cc(-c3ccc(C(=O)NC4CC(O)CNC(=O)C5C(O)C(C)CN5C(=O)C(C(O)CC(N)=O)NC(=O)C(C(O)Cc5ccc(O)c(OS(=O)(=O)[O-])c5)NC(=O)C5CCCN5C(=O)C(CO)NC4=O)cc3)no2)cc1.[Na+] (stereo not drawn) [Object Compound (10)] (X3-[ξOrn(4ξ-OH)]SP[ξhTyr(βξ-OH,3-OSO3H)][X2][ξPro(3ξ-OH,4ξ-Me)]; lactam 1-C; configuration not given here) | – | < 0.1 µg/mL
